Measured values as given in ChEMBL document CHEMBL6092125, “Synthesis and biological evaluation of novel aminoquinolines with an n-octyl linker: Impact of halogen substituents on C(7) or a terminal amino group on anticholinesterase and BACE1 activity” (Bioorg Med Chem Lett, 2024).
Active and inactive are the calls of the source. No cut-off for these calls is given here.

Key:
Acetylcholinesterase [1] = target: T1, Acetylcholinesterase (Homo sapiens, UniProt P22303); assay: Non-competitive inhibition of recombinant human AChE by DTNB reagent based Ellman's method
Cholinesterase [2] = target: T2, Cholinesterase (Homo sapiens, UniProt P06276); assay: Competitive inhibition of recombinant human BChE by DTNB reagent based Ellman's method
Cholinesterase [3] = target: T2, Cholinesterase; assay: Mixed type inhibition of recombinant human BChE by DTNB reagent based Ellman's method
SH-SY5Y = assay: Cytotoxicity against human SH-SY5Y cells incubated for 24 hrs by MTS assay; assay type: functional, cell-based
HepG2 = assay: Cytotoxicity against human HepG2 cells incubated for 24 hrs by MTS assay; assay type: functional, cell-based
HEK293 = assay: Cytotoxicity against HEK293 cells incubated for 24 hrs by MTS assay; assay type: functional, cell-based; settings: Homo sapiens
Acetylcholinesterase [4] = target: T1, Acetylcholinesterase; assay: Mixed type inhibition of recombinant human AChE by DTNB reagent based Ellman's method
[5] = target: Beta-secretase 1 (Homo sapiens) (UniProt P56817); assay: Inhibition of BACE1 (unknown origin) at 1 uM relative to control
Cholinesterase [6] = target: T2, Cholinesterase; assay: Inhibition of recombinant human BChE by DTNB reagent based Ellman's method
Acetylcholinesterase [7] = target: T1, Acetylcholinesterase; assay: Inhibition of recombinant human AChE by DTNB reagent based Ellman's method
Acetylcholinesterase [8] = target: T1, Acetylcholinesterase; assay: Competitive inhibition of recombinant human AChE by DTNB reagent based Ellman's method

Sequence of Beta-secretase 1 (Homo sapiens) (P56817 whole entry): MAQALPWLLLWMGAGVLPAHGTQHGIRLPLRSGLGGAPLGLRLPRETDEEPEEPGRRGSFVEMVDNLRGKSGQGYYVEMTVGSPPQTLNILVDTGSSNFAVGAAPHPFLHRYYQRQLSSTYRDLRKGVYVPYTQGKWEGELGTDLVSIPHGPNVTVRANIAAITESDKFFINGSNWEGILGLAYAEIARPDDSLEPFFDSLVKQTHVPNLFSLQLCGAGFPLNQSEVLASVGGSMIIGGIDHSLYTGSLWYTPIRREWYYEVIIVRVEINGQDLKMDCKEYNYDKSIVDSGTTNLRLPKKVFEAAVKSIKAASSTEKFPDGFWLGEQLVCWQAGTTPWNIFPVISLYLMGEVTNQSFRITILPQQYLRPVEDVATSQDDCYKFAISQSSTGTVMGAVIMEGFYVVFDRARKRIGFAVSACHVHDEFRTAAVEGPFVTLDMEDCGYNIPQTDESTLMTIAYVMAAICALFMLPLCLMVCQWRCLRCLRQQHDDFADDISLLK
T2 sequence (P06276 whole entry): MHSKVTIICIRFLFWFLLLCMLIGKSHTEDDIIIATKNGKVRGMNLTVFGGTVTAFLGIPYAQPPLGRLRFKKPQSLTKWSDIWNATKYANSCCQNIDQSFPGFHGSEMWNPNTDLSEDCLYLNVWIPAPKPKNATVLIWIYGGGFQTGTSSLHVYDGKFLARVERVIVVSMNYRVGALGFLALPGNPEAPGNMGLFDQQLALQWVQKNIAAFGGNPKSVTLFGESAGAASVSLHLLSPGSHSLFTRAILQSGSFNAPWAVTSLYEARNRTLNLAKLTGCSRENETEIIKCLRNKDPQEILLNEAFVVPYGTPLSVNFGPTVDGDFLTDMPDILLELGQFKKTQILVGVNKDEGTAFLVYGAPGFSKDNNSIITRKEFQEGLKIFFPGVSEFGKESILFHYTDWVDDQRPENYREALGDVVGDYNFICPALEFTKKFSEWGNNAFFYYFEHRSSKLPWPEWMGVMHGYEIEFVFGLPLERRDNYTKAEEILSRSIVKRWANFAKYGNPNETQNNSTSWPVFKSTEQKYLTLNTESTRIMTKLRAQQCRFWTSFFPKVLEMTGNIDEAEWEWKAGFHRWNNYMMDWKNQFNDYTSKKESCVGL
T1 sequence (P22303 whole entry): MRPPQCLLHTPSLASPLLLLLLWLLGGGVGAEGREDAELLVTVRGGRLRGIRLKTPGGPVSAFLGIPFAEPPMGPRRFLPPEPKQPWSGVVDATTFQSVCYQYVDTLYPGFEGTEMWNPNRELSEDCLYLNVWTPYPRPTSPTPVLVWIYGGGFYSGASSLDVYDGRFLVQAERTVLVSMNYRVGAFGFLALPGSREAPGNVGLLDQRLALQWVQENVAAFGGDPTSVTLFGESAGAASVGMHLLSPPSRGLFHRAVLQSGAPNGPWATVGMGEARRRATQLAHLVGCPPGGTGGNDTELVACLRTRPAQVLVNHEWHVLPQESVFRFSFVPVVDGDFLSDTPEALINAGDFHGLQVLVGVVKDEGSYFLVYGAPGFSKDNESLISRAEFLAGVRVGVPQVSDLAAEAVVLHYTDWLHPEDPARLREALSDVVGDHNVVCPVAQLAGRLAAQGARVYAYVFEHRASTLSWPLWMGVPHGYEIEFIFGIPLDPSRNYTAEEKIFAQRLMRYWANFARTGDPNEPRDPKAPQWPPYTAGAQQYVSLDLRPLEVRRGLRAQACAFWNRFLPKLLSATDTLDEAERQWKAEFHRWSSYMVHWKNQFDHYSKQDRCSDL

Structure (SMILES) | Ki (Cholinesterase [2]) [nM] | Activity (SH-SY5Y) | Activity (HEK293) | inhibition [5] [%] | Ki (Cholinesterase [6]) [nM] | Ki (Acetylcholinesterase [7]) [nM] | also measured
CC(C)(C)c1ccc(NCCCCCCCCNc2ccnc3cc(C(F)(F)F)ccc23)cc1 | 71 |  |  |  |  |  | Ki (Acetylcholinesterase [1]): 160 nM
Fc1cccc(NCCCCCCCCNc2ccnc3cc(C(F)(F)F)ccc23)c1 |  | inactive | inactive | > 5.6 |  |  | Ki (Cholinesterase [3]): 6.7 nM; Activity (HepG2): inactive; Ki (Acetylcholinesterase [4]): 7.1 nM
O=[N+]([O-])c1ccc(NCCCCCCCCNc2ccnc3cc(C(F)(F)F)ccc23)cc1 |  |  |  | > 5.6 |  |  | Ki (Cholinesterase [3]): 36 nM; Ki (Acetylcholinesterase [1]): 140 nM
FC(F)(F)c1ccc2c(NCCCCCCCCNc3cc4ccccc4s3)ccnc2c1 | 4.4 | Active | Active | > 5.6 |  |  | Ki (Acetylcholinesterase [4]): 70 nM
FC(F)(F)c1ccc2c(NCCCCCCCCNC3NCCN3)ccnc2c1 |  |  |  |  |  |  | Ki (Cholinesterase [3]): 190 nM; Ki (Acetylcholinesterase [1]): 200 nM
Fc1cccc(CNCCCCCCCCNc2ccnc3cc(Cl)ccc23)c1 |  |  |  |  | 8.4 | 3.2 | 
Fc1ccc(Br)c(CNCCCCCCCCNc2ccnc3cc(Cl)ccc23)c1 |  |  |  |  | 280 | 16 | 
FC(F)(F)c1ccc2c(NCCCCCCCCNc3cccc(Cl)c3)ccnc2c1 |  | Active | Active | > 5.6 |  |  | Ki (Cholinesterase [3]): 5.9 nM; Ki (Acetylcholinesterase [4]): 11 nM
Fc1ccc(Br)cc1CNCCCCCCCCNc1ccnc2cc(Cl)ccc12 |  |  |  |  | 220 | 24 | 
Fc1ccc(NCCCCCCCCNc2ccnc3cc(C(F)(F)F)ccc23)cc1 | 6.1 |  |  |  |  |  | Ki (Acetylcholinesterase [1]): 12 nM
FC(F)(F)c1ccc2c(NCCCCCCCCNc3ccncc3)ccnc2c1 | 1300 |  |  | > 5.6 |  |  | 
Fc1ccc(F)c(CN(CCCCCCCCNc2ccnc3cc(Cl)ccc23)c2cc(F)ccc2F)c1 |  |  |  |  | 1300 | 260 | 
FC(F)(F)c1ccc2c(NCCCCCCCCNc3cc4ccccc4o3)ccnc2c1 | 49 |  |  |  |  |  | Ki (Acetylcholinesterase [8]): 540 nM
Fc1cc(C(F)(F)F)ccc1CN(CCCCCCCCNc1ccnc2cc(Cl)ccc12)c1ccc(C(F)(F)F)cc1F |  |  |  |  | 1500 | 700 | 
FC(F)(F)c1ccc2c(NCCCCCCCCNc3ccccc3Cl)ccnc2c1 | 19 | Active | Active |  |  |  | Ki (Acetylcholinesterase [4]): 13 nM
FC(F)(F)c1ccc2c(NCCCCCCCCNc3ccccc3)ccnc2c1 |  |  |  | > 5.6 |  |  | Ki (Cholinesterase [3]): 21 nM; Ki (Acetylcholinesterase [1]): 8 nM
Fc1ccc(CNCCCCCCCCNc2ccnc3cc(Cl)ccc23)c(F)c1 |  | Active |  |  | 270 | 21 | 
Cc1cc(F)c(CNCCCCCCCCNc2ccnc3cc(Cl)ccc23)cc1F |  |  | Active |  | 620 | 120 | 
Clc1ccc(CNCCCCCCCCNc2ccnc3cc(Cl)ccc23)c(Cl)c1 |  | Active; Increase In Toxicity Compared To Parent Compound 1 |  |  | 180 | 36 | 
Fc1ccc(F)c(CNCCCCCCCCNc2ccnc3cc(Cl)ccc23)c1 |  |  |  | > 5.6 | 41 | 8.2 | 
Fc1cc(Br)ccc1CNCCCCCCCCNc1ccnc2cc(Cl)ccc12 |  | Active; Increase In Toxicity Compared To Parent Compound 1 |  |  | 230 | 110 | 
Fc1cc(C(F)(F)F)ccc1CNCCCCCCCCNc1ccnc2cc(Cl)ccc12 |  | Active; Increase In Toxicity Compared To Parent Compound 1 | Active |  | 1100 | 150 | 
FC(F)(F)c1ccc2c(NCCCCCCCCNc3ccc(Cl)cc3)ccnc2c1 | 21 | Active | Active |  |  |  | Ki (Acetylcholinesterase [8]): 70 nM
